In data set [1] the target is T1, Cysteinyl leukotriene receptor 1 (Homo sapiens, UniProt Q9Y271). Note: in other assays of this panel Not Active means under 50% inhibition at 10 µM.
T1 sequence (Q9Y271 whole entry): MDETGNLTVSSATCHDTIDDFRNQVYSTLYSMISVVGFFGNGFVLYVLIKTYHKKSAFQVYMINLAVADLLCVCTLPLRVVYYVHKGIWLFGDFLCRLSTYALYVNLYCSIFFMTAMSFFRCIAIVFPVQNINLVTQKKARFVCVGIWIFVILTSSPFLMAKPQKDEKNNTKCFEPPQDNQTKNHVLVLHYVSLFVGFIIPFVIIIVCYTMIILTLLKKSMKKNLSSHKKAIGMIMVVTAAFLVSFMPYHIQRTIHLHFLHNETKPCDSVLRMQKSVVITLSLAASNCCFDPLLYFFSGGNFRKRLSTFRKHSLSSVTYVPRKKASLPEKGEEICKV
In kind it is cell membranes, Membrane. The following applies: cho-k1.

Data set [2] deals with Sodium-dependent dopamine transporter (Homo sapiens, UniProt Q01959). Description: DRUGMATRIX: Dopamine Transporter radioligand binding (ligand: [125I] RTI-55). Format: cell membranes, CHO-K1, Membrane. The following applies: cho-k1; Not Active = under 50% inhibition at 10 µM.
In data set [3] the target is Epidermal growth factor receptor (Homo sapiens, UniProt P00533). As to the kind of experiment: DRUGMATRIX: Protein Tyrosine Kinase, EGF Receptor enzyme inhibition (substrate: Poly(Glu:Tyr)). In kind it is cell-based, Insect cells. Particulars: insect cells, Not Active = under 50% inhibition at 10 µM.
The nature of data set [4]: DRUGMATRIX: Potassium Channel [KATP] radioligand binding (ligand: [3H] Glyburide). In kind it is cell membranes, Membrane. The following applies: hit-t15; Not Active = under 50% inhibition at 10 µM.
Data set [5] deals with T2, C-C chemokine receptor type 4 (Homo sapiens, UniProt P51679).
T2 sequence (P51679 whole entry): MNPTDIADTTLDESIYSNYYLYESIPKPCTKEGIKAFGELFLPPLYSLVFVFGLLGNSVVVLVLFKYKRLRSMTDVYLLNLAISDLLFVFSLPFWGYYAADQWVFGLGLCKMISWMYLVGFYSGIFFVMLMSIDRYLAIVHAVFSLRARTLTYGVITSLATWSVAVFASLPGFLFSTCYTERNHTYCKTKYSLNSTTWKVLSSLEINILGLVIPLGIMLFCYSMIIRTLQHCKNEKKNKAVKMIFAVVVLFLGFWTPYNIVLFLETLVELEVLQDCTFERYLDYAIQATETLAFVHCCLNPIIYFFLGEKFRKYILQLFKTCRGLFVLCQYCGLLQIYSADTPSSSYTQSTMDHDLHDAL
Format: cell membranes, Membrane. The following applies: chem-1.

Data set [6] deals with Cytochrome P450 2C9 (Homo sapiens, UniProt P11712). The following applies: bti-tn-5b1-4.
Data set [7] concerns the target Beta-3 adrenergic receptor (Homo sapiens, UniProt P13945). As to the kind of experiment: DRUGMATRIX: Adrenergic beta3 radioligand binding (ligand: [125I] Cyanopindolol). The following applies: hek293; Not Active = under 50% inhibition at 10 µM. In kind it is cell membranes, HEK293, Membrane.

Sequence of Cytochrome P450 2C9 (P11712 whole entry): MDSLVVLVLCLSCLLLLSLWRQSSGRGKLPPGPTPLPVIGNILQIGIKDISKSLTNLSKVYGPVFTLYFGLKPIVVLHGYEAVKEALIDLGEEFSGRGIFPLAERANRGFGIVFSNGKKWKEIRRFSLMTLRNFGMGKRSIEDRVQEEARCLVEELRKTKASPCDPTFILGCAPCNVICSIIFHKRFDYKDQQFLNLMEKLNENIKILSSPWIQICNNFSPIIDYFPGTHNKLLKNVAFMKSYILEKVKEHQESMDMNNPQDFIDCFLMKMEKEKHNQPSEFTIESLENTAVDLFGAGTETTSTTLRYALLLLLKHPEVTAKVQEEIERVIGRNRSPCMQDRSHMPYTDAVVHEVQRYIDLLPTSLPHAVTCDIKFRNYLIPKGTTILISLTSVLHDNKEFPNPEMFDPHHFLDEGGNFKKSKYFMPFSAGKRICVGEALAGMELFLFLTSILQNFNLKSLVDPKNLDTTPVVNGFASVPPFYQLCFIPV
Sequence of Sodium-dependent dopamine transporter (Q01959 whole entry): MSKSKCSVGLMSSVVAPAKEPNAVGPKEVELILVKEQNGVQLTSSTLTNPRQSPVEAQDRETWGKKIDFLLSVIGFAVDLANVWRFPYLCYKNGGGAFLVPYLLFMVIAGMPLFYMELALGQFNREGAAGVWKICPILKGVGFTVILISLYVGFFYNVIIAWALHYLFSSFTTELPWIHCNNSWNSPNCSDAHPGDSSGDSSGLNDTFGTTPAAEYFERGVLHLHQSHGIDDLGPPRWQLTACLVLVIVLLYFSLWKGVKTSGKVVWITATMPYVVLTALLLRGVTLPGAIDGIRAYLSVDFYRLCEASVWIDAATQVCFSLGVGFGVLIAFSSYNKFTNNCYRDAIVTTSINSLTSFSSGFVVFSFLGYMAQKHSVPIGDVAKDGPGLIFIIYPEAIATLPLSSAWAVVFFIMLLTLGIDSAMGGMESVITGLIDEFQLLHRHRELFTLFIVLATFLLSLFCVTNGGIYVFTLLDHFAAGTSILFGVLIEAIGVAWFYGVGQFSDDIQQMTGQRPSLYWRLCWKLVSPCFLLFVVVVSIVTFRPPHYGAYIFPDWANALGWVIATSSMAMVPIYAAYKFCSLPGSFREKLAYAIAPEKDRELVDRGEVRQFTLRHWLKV
Sequence of Beta-3 adrenergic receptor (P13945 whole entry): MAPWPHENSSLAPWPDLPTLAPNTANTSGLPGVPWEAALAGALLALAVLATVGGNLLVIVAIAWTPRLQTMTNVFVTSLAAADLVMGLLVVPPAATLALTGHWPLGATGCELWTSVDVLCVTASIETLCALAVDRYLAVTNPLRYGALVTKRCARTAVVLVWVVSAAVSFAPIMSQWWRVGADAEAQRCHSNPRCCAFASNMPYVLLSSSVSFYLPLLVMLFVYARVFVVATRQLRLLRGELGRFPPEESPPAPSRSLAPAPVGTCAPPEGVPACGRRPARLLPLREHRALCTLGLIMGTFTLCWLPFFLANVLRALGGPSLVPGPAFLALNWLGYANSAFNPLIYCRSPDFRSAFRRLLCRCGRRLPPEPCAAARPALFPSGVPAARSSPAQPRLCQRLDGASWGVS

A word on the IC50: it is the concentration that inhibits the measured activity by half. Turning to `CC(=N)S` [THIOACETAMIDE], the IC50 entry in data set [1], in data set [2], in data set [3], in data set [4], in data set [5] and in data set [6] was “Not Active” in each case. The IC50 entry in data set [7] is “Not Active”. Moreover, the Ki result in data set [4] and in data set [6] was “Not Active” in each case.

Turning to `Cc1ccc(C(=O)c2ccc(CC(=O)O)n2C)cc1` [TOLMETIN], the IC50 result in data set [1], in data set [2], in data set [3], in data set [4], in data set [5] and in data set [6] was “Not Active” each time. The IC50 result in data set [7] is “Not Active”. Also, the Ki entry in data set [4] and in data set [6] was “Not Active” in each case.

For the compound `CC(=O)OCC(COC(C)=O)OC(C)=O` [TRIACETIN], the IC50 entry in data set [1], in data set [2], in data set [3], in data set [4], in data set [6] and in data set [7] was “Not Active” throughout. Moreover, the Ki entry in data set [4], in data set [5] and in data set [6] was “Not Active” in each case.

Regarding TRANSPLATIN, the IC50 result was “Not Active” in data set [1]; “Not Active” in data set [2]; 1060 nM in data set [3] (read-out: IC50); “Not Active” in data set [4]; “Not Active” in data set [5]; “Not Active” in data set [6]. In addition, in data set [7], the IC50 result is “Not Active”. In addition, the Ki result in data set [1], in data set [2], in data set [4], in data set [5], in data set [6] and in data set [7] was “Not Active” in each case.

As for ZIRCONIUM(IV) CHLORIDE, the IC50 entry in data set [1], in data set [2], in data set [3], in data set [4], in data set [5] and in data set [6] was “Not Active” throughout. The IC50 entry in data set [7] is “Not Active”. For the same compound, the Ki result in data set [1], in data set [2], in data set [3], in data set [4], in data set [5] and in data set [6] was “Not Active” throughout. For the same compound, in data set [7], the Ki result is reported as “Not Active”.

Values taken from ChEMBL document CHEMBL1909046, “DrugMatrix in vitro pharmacology data”.
